Laboratory results published in ChEMBL document CHEMBL1629666, “Quinolone resistance in Neisseria gonorrhoeae: rapid genotyping of quinolone resistance-determining regions in gyrA and parC genes by melting curve analysis predicts susceptibility” (2009).
Converted amounts (≈) assume the structure as drawn.

Tests used:
Neisseria gonorrhoeae [1] = assay: Antimicrobial activity against Neisseria gonorrhoeae 07 QA 06 harboring gyrA S91F mutant gene by Etest
Neisseria gonorrhoeae [2] = assay: Antimicrobial activity against Neisseria gonorrhoeae WHO. O by Etest
Neisseria gonorrhoeae [3] = assay: Antimicrobial activity against Neisseria gonorrhoeae WHO. L harboring gyrA S91F, D95N and parC D86N and S88P mutant gene by Etest
Neisseria gonorrhoeae [4] = assay: Antimicrobial activity against Neisseria gonorrhoeae WHO. P by Etest
Neisseria gonorrhoeae [5] = assay: Antimicrobial activity against Neisseria gonorrhoeae 98G0867 harboring gyrA S91F, D95G and parC S87R mutant gene by Etest
Neisseria gonorrhoeae [6] = assay: Antimicrobial activity against Neisseria gonorrhoeae 96G0142 harboring gyrA S91Y and parC E91Q mutant gene by Etest
Neisseria gonorrhoeae [7] = assay: Antimicrobial activity against Neisseria gonorrhoeae isolate IPC-NG18 harboring gyrA S91F, D95A and parC S87N mutant gene by Etest
Neisseria gonorrhoeae [8] = assay: Antimicrobial activity against Neisseria gonorrhoeae WHO. M harboring gyrA S91F and D95G mutant gene by Etest
Neisseria gonorrhoeae [9] = assay: Antimicrobial activity against Neisseria gonorrhoeae isolate IPC-NG7 harboring gyrA S91F, D95G and parC S87N and E91Q mutant gene by Etest
Neisseria gonorrhoeae [10] = assay: Antimicrobial activity against Neisseria gonorrhoeae isolate IPC-NG16 harboring gyrA S91F, D95A and parC S87R mutant gene by Etest
Neisseria gonorrhoeae [11] = assay: Antimicrobial activity against Neisseria gonorrhoeae isolate IPC-NG2 harboring gyrA S91F, D95Y and parC E91G mutant gene by Etest
Neisseria gonorrhoeae [12] = assay: Antimicrobial activity against Neisseria gonorrhoeae isolate IPC-NG14 harboring gyrA S91F and D95A mutant gene by Etest
Neisseria gonorrhoeae [13] = assay: Antimicrobial activity against Neisseria gonorrhoeae 97G0319 harboring gyrA D95G mutant gene by Etest
Neisseria gonorrhoeae [14] = assay: Antimicrobial activity against Neisseria gonorrhoeae isolate IPC-NG13 harboring gyrA S91F, D95A and parC S87N and E91Q mutant gene by Etest
Neisseria gonorrhoeae [15] = assay: Antimicrobial activity against Neisseria gonorrhoeae isolate IPC-NG8 by Etest
Neisseria gonorrhoeae [16] = assay: Antimicrobial activity against Neisseria gonorrhoeae 92G0551 harboring gyrA S91Y mutant gene by Etest
Neisseria gonorrhoeae [17] = assay: Antimicrobial activity against Neisseria gonorrhoeae 07 QA 02 by Etest
Neisseria gonorrhoeae [18] = assay: microbe, parasite or virus in culture; conditions: isolate 108 175 340
Description: Antimicrobial activity against Neisseria gonorrhoeae isolate 108 175 340 harboring gyrA S91F, D95G and parC E91G mutant gene by Etest

Neisseria gonorrhoeae [19] = assay: Antimicrobial activity against Neisseria gonorrhoeae isolate IPC-NG3 harboring gyrA S91F and D95A mutant gene by Etest
Neisseria gonorrhoeae [20] = assay: Antimicrobial activity against Neisseria gonorrhoeae 97G0398 harboring gyrA S91F, D95G and parC S88P mutant gene by Etest
Neisseria gonorrhoeae [21] = assay: Antimicrobial activity against Neisseria gonorrhoeae isolate IPC-NG1 harboring gyrA S91F, D95Y and parC E91G mutant gene by Etest
Neisseria gonorrhoeae [22] = assay: Antimicrobial activity against Neisseria gonorrhoeae 91G0622 harboring gyrA D95N mutant gene by Etest
Neisseria gonorrhoeae [23] = assay: Antimicrobial activity against Neisseria gonorrhoeae isolate IPC-NG6 harboring gyrA S91F, D95Y and parC E91G mutant gene by Etest
Neisseria gonorrhoeae [24] = assay: Antimicrobial activity against Neisseria gonorrhoeae isolate IPC-NG10 harboring gyrA S91F, D95G and parC S87R mutant gene by Etest
Neisseria gonorrhoeae [25] = assay: Antimicrobial activity against Neisseria gonorrhoeae 91G0316 harboring gyrA S91F mutant gene by Etest
Neisseria gonorrhoeae [26] = assay: Antimicrobial activity against Neisseria gonorrhoeae 98G0872 harboring gyrA S91F, D95N and parC E91K mutant gene by Etest
Neisseria gonorrhoeae [27] = assay: Antimicrobial activity against Neisseria gonorrhoeae isolate IPC-NG9 harboring gyrA S91F, D95A and parC S87N and E91Q mutant gene by Etest
Neisseria gonorrhoeae [28] = assay: Antimicrobial activity against Neisseria gonorrhoeae 95G0142 harboring gyrA S91F, D95N and parC S87R mutant gene by Etest
Neisseria gonorrhoeae [29] = assay: Antimicrobial activity against Neisseria gonorrhoeae WHO. G harboring gyrA S91F mutant gene by Etest
Neisseria gonorrhoeae [30] = assay: Antimicrobial activity against Neisseria gonorrhoeae 98G0798 harboring gyrA S91F mutant gene by Etest
Neisseria gonorrhoeae [31] = assay: Antimicrobial activity against Neisseria gonorrhoeae isolate IPC-NG5 harboring gyrA S91F, D95A and parC E91G mutant gene by Etest
Neisseria gonorrhoeae [32] = assay: Antimicrobial activity against Neisseria gonorrhoeae 93G0065 harboring gyrA D95N mutant gene by Etest
Neisseria gonorrhoeae [33] = assay: Antimicrobial activity against Neisseria gonorrhoeae 97G0109 harboring gyrA S91F, D95G and parC D86N mutant gene by Etest
Neisseria gonorrhoeae [34] = assay: Antimicrobial activity against Neisseria gonorrhoeae WHO. C by Etest
Neisseria gonorrhoeae [35] = assay: Antimicrobial activity against Neisseria gonorrhoeae 98G0959 harboring gyrA D95N mutant gene by Etest
Neisseria gonorrhoeae [36] = assay: Antimicrobial activity against Neisseria gonorrhoeae isolate IPC-NG19 harboring gyrA S91F, D95A and parC S87N mutant gene by Etest

## O=C(O)c1cn(C2CC2)c2cc(N3CCNCC3)c(F)cc2c1=O [CIPROFLOXACIN]
Neisseria gonorrhoeae [1]
  MIC: 0.38 µg/mL (≈ 1.15 µM)
Neisseria gonorrhoeae [2]
  MIC: 0.016 µg/mL (≈ 0.0483 µM)
Neisseria gonorrhoeae [3]
  MIC: 16 µg/mL (≈ 48.3 µM)
Neisseria gonorrhoeae [4]
  MIC: 0.016 µg/mL (≈ 0.0483 µM)
Neisseria gonorrhoeae [5]
  MIC: 8 µg/mL (≈ 24.1 µM)
Neisseria gonorrhoeae [6]
  MIC: 1 µg/mL (≈ 3.02 µM)
Neisseria gonorrhoeae [7]
  MIC: > 32 µg/mL
Neisseria gonorrhoeae [8]
  MIC: 2 µg/mL (≈ 6.04 µM)
Neisseria gonorrhoeae [9]
  MIC: > 32 µg/mL
Neisseria gonorrhoeae [10]
  MIC: 1.5 µg/mL (≈ 4.53 µM)
Neisseria gonorrhoeae [11]
  MIC: > 32 µg/mL
Neisseria gonorrhoeae [12]
  MIC: 3 µg/mL (≈ 9.05 µM)
Neisseria gonorrhoeae [13]
  MIC: 0.125 µg/mL (≈ 0.377 µM)
Neisseria gonorrhoeae [14]
  MIC: 12 µg/mL (≈ 36.2 µM)
Neisseria gonorrhoeae [15]
  MIC: 0.016 µg/mL (≈ 0.0483 µM)
Neisseria gonorrhoeae [16]
  MIC: 0.5 µg/mL (≈ 1.51 µM)
Neisseria gonorrhoeae [17]
  MIC: 0.023 µg/mL (≈ 0.0694 µM)
Neisseria gonorrhoeae [18]
  MIC: 4 µg/mL (≈ 12.1 µM)
Neisseria gonorrhoeae [19]
  MIC: 3 µg/mL (≈ 9.05 µM)
Neisseria gonorrhoeae [20]
  MIC: 2 µg/mL (≈ 6.04 µM)
Neisseria gonorrhoeae [21]
  MIC: > 32 µg/mL
Neisseria gonorrhoeae [22]
  MIC: 0.125 µg/mL (≈ 0.377 µM)
Neisseria gonorrhoeae [23]
  MIC: > 32 µg/mL
Neisseria gonorrhoeae [24]
  MIC: > 32 µg/mL
Neisseria gonorrhoeae [25]
  MIC: 0.5 µg/mL (≈ 1.51 µM)
Neisseria gonorrhoeae [26]
  MIC: 8 µg/mL (≈ 24.1 µM)
Neisseria gonorrhoeae [27]
  MIC: 16 µg/mL (≈ 48.3 µM)
Neisseria gonorrhoeae [28]
  MIC: 32 µg/mL (≈ 96.6 µM)
Neisseria gonorrhoeae [29]
  MIC: 0.25 µg/mL (≈ 0.754 µM)
Neisseria gonorrhoeae [30]
  MIC: 1 µg/mL (≈ 3.02 µM)
Neisseria gonorrhoeae [31]
  MIC: > 32 µg/mL
Neisseria gonorrhoeae [32]
  MIC: 0.125 µg/mL (≈ 0.377 µM)
Neisseria gonorrhoeae [33]
  MIC: 2 µg/mL (≈ 6.04 µM)
Neisseria gonorrhoeae [34]
  MIC: 0.016 µg/mL (≈ 0.0483 µM)
Neisseria gonorrhoeae [35]
  MIC: 0.25 µg/mL (≈ 0.754 µM)
Neisseria gonorrhoeae [36]
  MIC: > 32 µg/mL
